Values quoted from earlier work in US6617125B2, “Compositions for enhanced catalyzed reporter deposition” (PerkinElmer Life Sciences, Inc., priority 2001, dated 2003).

How the values were obtained:
HRP [1] = settings: substrate guaiacol; Whitaker and Tappel 1962
HRP [2] = biological target: T1, HRP (Armoracia rusticana, UniProt P00433)
T1 sequence (P00433 31-338 limits assumed): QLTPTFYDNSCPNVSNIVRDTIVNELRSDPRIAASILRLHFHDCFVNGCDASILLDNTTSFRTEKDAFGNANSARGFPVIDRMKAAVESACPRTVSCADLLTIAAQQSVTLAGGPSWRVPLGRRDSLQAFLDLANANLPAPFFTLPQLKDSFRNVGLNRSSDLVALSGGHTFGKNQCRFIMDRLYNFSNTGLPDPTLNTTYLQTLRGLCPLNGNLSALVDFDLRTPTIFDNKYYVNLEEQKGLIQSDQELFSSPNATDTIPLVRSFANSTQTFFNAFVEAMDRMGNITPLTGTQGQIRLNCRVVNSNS

## [Cl-].[Na+] [NaCl]
HRP [1]
  enhancement of the oxidation of guaiacol: enhance

## c1c[nH]cn1 [imidazole]
HRP [2]; substrate 4-chloro-1-naphthol, de Jong et al. 1985
  effect on the oxidation of 4-chloro-1-naphthol: no effect
HRP [2]; substrate combination p-phenylenediamine-pyrocatechol, de Jong et al. 1985
  enhancement of the oxidation of p-phenylenediamine-pyrocatechol: two
HRP [2]; substrate diaminobenzidine, de Jong et al. 1985
  enhancement of the oxidation of diaminobenzidine: approximately four
HRP [2]; substrates which form covalently depositable products
  effect on substrates which form covalently depositable products: no effect

## O=S(=O)([O-])[O-].[Na+].[Na+] [Na2SO4]
HRP [1]
  enhancement of the oxidation of guaiacol: enhance

## [Cl-].[K+] [KCl]
HRP [1]
  enhancement of the oxidation of guaiacol: enhance
